According to ChEMBL document CHEMBL2073770, “Induction of multidrug resistance gene expression in rat liver cells in response to acute treatment by the DNA-damaging agent methyl methanesulfonate” (Biochem Biophys Res Commun, 1998):

Target: ATP-dependent translocase ABCB1 (Rattus norvegicus, UniProt P43245)
Assay: TP_TRANSPORTER: RT-PCR in vitro, liver epithelial cells
Format: functional, tissue-based
Conditions: epithelial cell

Sequence of ATP-dependent translocase ABCB1 (P43245 whole entry): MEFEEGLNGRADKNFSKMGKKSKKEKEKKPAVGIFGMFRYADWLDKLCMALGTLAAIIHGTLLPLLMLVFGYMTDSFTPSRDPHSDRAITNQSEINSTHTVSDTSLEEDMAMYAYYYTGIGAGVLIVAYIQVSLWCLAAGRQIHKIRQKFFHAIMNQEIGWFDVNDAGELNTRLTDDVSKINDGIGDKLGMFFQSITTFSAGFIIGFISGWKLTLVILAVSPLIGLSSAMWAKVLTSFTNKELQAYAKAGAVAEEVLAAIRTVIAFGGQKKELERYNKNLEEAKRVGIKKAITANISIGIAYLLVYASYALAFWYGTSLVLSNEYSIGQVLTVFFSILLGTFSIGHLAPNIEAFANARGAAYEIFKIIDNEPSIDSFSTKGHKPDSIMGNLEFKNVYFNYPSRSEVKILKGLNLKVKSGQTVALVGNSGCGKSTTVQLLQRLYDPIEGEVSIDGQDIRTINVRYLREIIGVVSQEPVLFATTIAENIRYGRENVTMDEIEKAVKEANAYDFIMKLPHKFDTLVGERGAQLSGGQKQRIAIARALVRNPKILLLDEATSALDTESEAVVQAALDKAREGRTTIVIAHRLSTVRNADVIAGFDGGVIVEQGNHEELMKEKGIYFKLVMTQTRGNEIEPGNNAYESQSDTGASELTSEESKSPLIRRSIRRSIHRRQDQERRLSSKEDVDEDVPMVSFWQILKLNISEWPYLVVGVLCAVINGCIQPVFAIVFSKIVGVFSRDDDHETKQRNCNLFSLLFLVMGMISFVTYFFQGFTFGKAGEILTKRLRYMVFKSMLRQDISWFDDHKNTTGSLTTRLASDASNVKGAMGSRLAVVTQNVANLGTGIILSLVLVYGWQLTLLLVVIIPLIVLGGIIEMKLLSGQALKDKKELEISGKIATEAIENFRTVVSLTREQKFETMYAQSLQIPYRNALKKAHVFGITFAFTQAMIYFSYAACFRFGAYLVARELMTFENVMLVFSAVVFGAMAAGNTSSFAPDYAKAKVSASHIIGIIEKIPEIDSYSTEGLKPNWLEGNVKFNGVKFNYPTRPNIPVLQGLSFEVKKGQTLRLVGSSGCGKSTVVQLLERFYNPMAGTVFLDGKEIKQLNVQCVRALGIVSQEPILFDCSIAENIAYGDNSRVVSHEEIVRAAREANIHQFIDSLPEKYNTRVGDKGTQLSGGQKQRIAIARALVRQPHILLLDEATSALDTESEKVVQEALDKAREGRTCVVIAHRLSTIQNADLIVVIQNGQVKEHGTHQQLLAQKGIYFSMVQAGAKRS

COS(C)(=O)=O [METHANESULFONIC ACID METHYL ESTER]
Activity: inducer [+]
